The values below come from patent US10189795B2, “Aryl amine substituted quinoxaline used as anticancer drugs” (priority 2014, dated 2019).

Experiment [1] relates to PLC5. Description: MTT cell viability, PLC5. It is filed as cell-based. The following applies: 48 h. As for the experimental part:
(§1) The Sk-Hep1, PLC/PRF/5 (PLC) and Hep3B cell lines were obtained from American Type Culture Collection (ATCC; Manassas, Va., USA). The Huh-7 HCC cell line was obtained from the Health Science Research Resources Bank (HSRRB; Osaka, Japan; JCRB0403). Cells were maintained in DMEM supplemented with 10% FBS in a 37° C. humidified incubator in an atmosphere of 5% CO^2 in air. Other cell lines, including non-small cell lung cancer cells e.g. H358, H460 and A549 and human squamous cell carcinoma cells e.g. NCI-1703, H2170, H520, SW900 and NCI—H226 all obtained from American Type Culture Collection (Manassas, Va.) were also provided for the assays describes below.
(§2) The present invention compared the antitumor activities of an erlotinib derivative of the present invention, TD-52, and erlotinib on HCC cells. The present invention used MTT assay to evaluate cell viability after exposure to TD-52 or erlotinib for 48 h. […] To further evaluate the cell apoptosis induced by the treatments, all four cell lines were treated with TD-52 and erlotinib at the indicated concentration for 24 h and the percentages of sub-G1 cells were determined by flow cytometry (FIG. 1B).

In experiment [2] the test system is CIP2A, p-Akt. Description: western blot of CIP2A and p-Akt in HCC cells. To be noted: dose- and time-dependent. It is filed as cell-based. The method, then:
Bar, mean; error bars, S.D. (n=3). […] Bar, mean; error bars, S.D. (n=3). […] Bar, mean; error bars, S.D. (n=3). […] Bar, mean; error bars, S.D. (n=3). […] Bar, mean; error bars, S.D. (n=3)
Cells were treated with […] for a time period. Cell lysates were analyzed by western blot analysis.
The present invention next investigated the molecular mechanism associated with TD-52, with particular focus on the cancerous inhibitor of protein phosphatase 2A (CIP2A)-protein phosphatase 2A (PP2A)-p-Akt signaling pathway. […] Furthermore, PP2A activity was enhanced after HCC cells treated with […]-52 for 24 hr (FIG. 2C), while the expression level of PP2A-related subunits, PP2A-A, PP2A-B5 and PP2A-C subunits, were not affected.
(In western blotting, separated proteins are transferred to a membrane and probed.)

The subject of experiment [3] is A549. Description: cell viability of A549 cells, 1 and 10 uM. It is filed as cell-based. The following applies: Homo sapiens.
In experiment [4] the test system is NCI-1703. Description: cell viability of NCI-1703 cells, 1 and 10 uM of each erlotinib derivative, and IC50. It is filed as cell-based. The following applies: Homo sapiens.
Experiment [5] relates to Hep3B. Briefly: MTT cell viability, Hep3B. It is filed as cell-based. The following applies: Homo sapiens, 48 h. The method, then: as §1, §2
Experiment [6] relates to H520. Description: cell viability of H520 cells, 1 and 10 uM. It is filed as cell-based. The following applies: Homo sapiens, NCI-H520.
Experiment [7] deals with H2170. Briefly: cell viability of H2170 cells, 1 and 10 uM. It is filed as cell-based. The following applies: Homo sapiens, NCI-H2170.
The subject of experiment [8] is PLC5 xenograft tumor. Description: PLC5 xenograft tumor growth in nude mice. It is filed as in vivo. As for the experimental part: Male NCr athymic nude mice (5-7 weeks of age) were obtained from the National Laboratory Animal Center (Taipei, Taiwan). All experimental procedures using these mice were performed in accordance with protocols approved by the Institutional Laboratory Animal Care and Use Committee of National Taiwan University. Each mouse was inoculated subcutaneously in the dorsal flank with 1×10^6 PLC5 or A549 cells suspended in serum-free medium containing 50% Matrigel (BD Biosciences, Bedford, Mass., USA). When tumors reached 100-150 mm^3, mice were treated with sorafenib, the erlotinib derivatives of the present invention, or vehicle (control) at 10 mg/kg/day daily by oral gavage for 4 weeks.
The present invention used a PLC5 xenograft mouse model to assess the effects of TD-52 in vivo. The present choose sorafenib as one of the comparative treatment arms. Tumor-bearing mice were administered sorafenib (10 mg/kg), TD-52 (10 mg/kg) or DMSO (vehicle, as control). […] The present invention further examined the xenografted tumors taken from mice receiving TD-52 and vehicle to confirm the molecular events in the tumor tissue. […] When PP2A activity was enhanced by TD-52, Akt was dephosphorylated, promoting HCC cell apoptosis.

The test system of experiment [9] is H358. Briefly: cell viability of H358 cells, 1 and 10 uM. It is filed as cell-based. The following applies: Homo sapiens, NCI-H358.

Molecules are shown by their SMILES.

As to `C#Cc1cccc(Nc2nc3ccccc3nc2Nc2cccc(C#C)c2)c1` [TD52, N^2,N^3-bis(3-ethynylphenyl)quinoxaline-2,3-diamine], the concentration for half-maximal inhibition (IC50) (usually the concentration that gives 50% inhibition) in [1] is 800 nM; in experiment [4] (cell viability), 3800 nM; in experiment [5], 900 nM. In addition, in experiment [2], the “protein expression of CIP2A and p-Akt” value was “downregulated”. In addition, the viability (commonly the share of living cells, or the viability signal relative to a control) at 1 µM was 71.5 ± 6% in experiment [3] (1 uM); 84.7 ± 2.5% in experiment [4] (1 uM); 95.8 ± 1.26% in experiment [6] (1 uM); 100 ± 3.21% in experiment [7] (1 uM); 99.8 ± 3.8% in experiment [9] (1 uM). For the same molecule, the viability at 10 µM in [3] (10 uM) came to 9.7 ± 0.9%; in experiment [4] (10 uM) it was 10.1 ± 0.1%; in experiment [6] (10 uM) it was 14 ± 0.14%; in experiment [7] (10 uM) it was 7.84 ± 9.49%; in experiment [9] (10 uM), 11.2 ± 0.7%. Besides, the “inhibition of in vivo tumor growth in comparison with sorafenib” value in experiment [8] (10 mg/kg each, P<0.05) is “more potent inhibition of in vivo tumor growth”. In addition, the tumor size entry in experiment [8] (10 mg/kg, oral gavage daily, 4 weeks, vs control arm) was “smaller than those of the control arm”. Further, the “PP2A activity in xenograft tumor samples” value in experiment [8] (TD-52 vs vehicle) was “enhanced PP2A activity”.
